Measurements from ChEMBL document CHEMBL1201862, “PubChem BioAssay data set” (2004).
Several values for one entry are separate records, joined by “and”; a condition that tells them apart may be missing. Equal entries are not always repeated.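 48-hour exposure; five concentrations; linearly interpolated endpoints. GI50 marks 50% less growth.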 Activity calls are given as the source filed them. Rule as the data show it: active = GI50 up to about 1.1 µM and inactive = higher.

Experiments:
Test in all cases: inhibition of tumour cell growth, NCI panel, 48 h
SNB-78 = test system: SNB-78
HOP-18 = test system: HOP-18
DMS-114 = test system: DMS-114
DLD-1 = test system: DLD-1
XF498 = test system: XF498
DMS-273 = test system: DMS-273
KM-20L2 = test system: KM-20L2
M19-MEL = test system: M19-MEL
RXF 631 = test system: RXF 631

Measured: GI50

O=C(N/N=C1\C(=O)N(c2nccs2)C(=O)C(=O)C1c1nc2ccccc2s1)c1ccccc1O (configuration not stated)
inactive: SNB-78 33.3 µM | HOP-18 10.1 µM | DMS-114 28.3 µM | DLD-1 71.1 µM | XF498 27.1 µM | DMS-273 31.8 µM | KM-20L2 > 100 µM | M19-MEL 87.1 µM

Cc1cc(C(O)CCCc2ccccc2)cc(C)c1O (configuration not stated)
inactive: SNB-78 34.9 µM | HOP-18 > 100 µM | DMS-114 26.2 µM | RXF 631 51.5 µM | KM-20L2 > 100 µM | M19-MEL 37.7 µM

CC(=O)OC12/C(=N/O)CCCCCC1c1ccccc12 (configuration not stated)
inactive: SNB-78 36.3 µM | HOP-18 > 100 µM | DMS-114 41.7 µM | XF498 62.8 µM | DMS-273 > 100 µM | KM-20L2 > 100 µM | M19-MEL > 100 µM

CCOC(=O)c1cn(CC)c2cc3c(cc2c1=O)SCS3
inactive: HOP-18 80 µM | DMS-114 > 100 µM | DLD-1 > 100 µM | DMS-273 > 100 µM | RXF 631 > 100 µM | KM-20L2 > 100 µM | M19-MEL > 100 µM

CN(C)CCNC(=O)c1cccc2cc3c(Cl)cccc3nc12
active: XF498 0.394 µM | DMS-273 0.562 µM
inactive: SNB-78 2.11 µM | HOP-18 4.51 µM | DMS-114 1.35 µM | DLD-1 1.17 µM | RXF 631 2.55 µM | KM-20L2 1.54 µM | M19-MEL 1.33 µM

NC(=S)N/N=C(\CCC(=O)Nc1ccccc1[N+](=O)[O-])CC(=O)c1ccco1
inactive: SNB-78 > 100 µM | HOP-18 > 100 µM | DMS-114 > 100 µM | DLD-1 > 100 µM | XF498 > 100 µM | DMS-273 > 100 µM | RXF 631 > 100 µM | KM-20L2 > 100 µM | M19-MEL > 100 µM

COc1cc([C@@H]2c3cc4c(cc3[C@@H](OC(=O)c3cccc(N)c3)C3COC(=O)[C@@H]32)OCO4)cc(OC)c1O (some centres not stated)
inactive: SNB-78 64.4 µM | DMS-114 3.66 µM | DLD-1 12.3 µM | KM-20L2 1.41 µM | M19-MEL 5.68 µM
active: XF498 0.863 µM | DMS-273 0.525 µM

CCOC(=O)C1(C)CCCCC(=O)N1 (configuration not stated)
inactive: SNB-78 > 100 µM | HOP-18 64.3 µM | DMS-114 > 100 µM | DLD-1 > 100 µM | XF498 > 100 µM | DMS-273 > 100 µM | RXF 631 > 100 µM | KM-20L2 > 100 µM | M19-MEL > 100 µM

CC(C)(CCl)NC(=O)c1cccc(C(=O)NC(C)(C)CCl)n1
inactive: SNB-78 > 100 µM | DMS-114 > 100 µM | DLD-1 > 100 µM | DMS-273 > 100 µM | RXF 631 > 100 µM | KM-20L2 > 100 µM | M19-MEL > 100 µM

O=C(CC(=O)C1=CNc2ccccc2S1)C(=O)Nc1ccc(Cl)cc1
inactive: SNB-78 > 50 µM | DMS-114 > 50 µM | DLD-1 > 50 µM | XF498 > 50 µM | DMS-273 > 50 µM | RXF 631 > 50 µM | KM-20L2 > 50 µM | M19-MEL > 50 µM

COC(=O)C(=O)C(C#N)c1nc2ccccc2s1 (configuration not stated)
inactive: SNB-78 > 100 µM | DMS-114 > 100 µM | DLD-1 56.4 µM | XF498 > 100 µM | DMS-273 > 100 µM | RXF 631 > 100 µM | KM-20L2 > 100 µM | M19-MEL > 100 µM

O=S1(=O)NN=C(NCc2ccc(F)cc2)c2ccccc21
inactive: SNB-78 55.6 µM | DLD-1 58.5 µM | XF498 65 µM | DMS-273 47.1 µM | KM-20L2 > 100 µM | M19-MEL 40.4 µM

Cc1cn2c(=O)c3ccccc3nc2s1
inactive: SNB-78 > 100 µM | DMS-114 > 100 µM | DLD-1 > 100 µM | DMS-273 > 100 µM | KM-20L2 > 100 µM | M19-MEL > 100 µM

CN(c1ccccc1)c1c(Cl)c(=O)oc2c1ccc1occc12
inactive: SNB-78 > 100 µM | HOP-18 > 100 µM | DMS-114 > 100 µM | DLD-1 > 100 µM | DMS-273 > 100 µM | RXF 631 > 100 µM | KM-20L2 > 100 µM | M19-MEL > 100 µM

Nc1ccc(C2=N/C(=C\c3cccc(N)c3)C(=O)O2)cc1
inactive: SNB-78 > 100 µM | DMS-114 > 100 µM | DLD-1 > 100 µM | XF498 > 100 µM | RXF 631 > 100 µM | KM-20L2 > 100 µM | M19-MEL > 100 µM

NC1=NC2=c3ccccc3=C(c3cnccn3)C2(c2cnccn2)c2ccccc21 (configuration not stated)
inactive: SNB-78 49.1 µM | HOP-18 > 100 µM | DMS-114 50.4 µM | DLD-1 > 100 µM | XF498 36.7 µM | DMS-273 > 100 µM | KM-20L2 > 100 µM | M19-MEL > 100 µM

Cc1ccc(/N=N/c2c(C)nn(-c3ccccc3)c2C)c(Br)c1
inactive: SNB-78 > 100 µM | HOP-18 > 100 µM | DMS-114 > 100 µM | DLD-1 65.6 µM | XF498 > 100 µM | DMS-273 51.3 µM | RXF 631 > 100 µM | KM-20L2 > 100 µM | M19-MEL > 100 µM

CCOC(=O)N1Cc2ccoc2C1
inactive: HOP-18 > 100 µM | DMS-114 > 100 µM | DLD-1 > 100 µM | DMS-273 > 100 µM | KM-20L2 > 100 µM | M19-MEL > 100 µM

O=C(Nc1nc2ncn(CCOC(=O)c3ccccc3)c2c(=S)[nH]1)c1ccccc1
inactive: SNB-78 44.1 µM | HOP-18 > 100 µM | DMS-114 64.4 µM | DLD-1 > 100 µM | DMS-273 50.9 µM | KM-20L2 > 100 µM | M19-MEL 50.4 µM

C=CCCn1nc(-c2ccccc2)oc1=O
inactive: SNB-78 > 100 µM | HOP-18 > 100 µM | DLD-1 > 100 µM | XF498 > 100 µM | DMS-273 > 100 µM | KM-20L2 > 100 µM | M19-MEL > 100 µM

CN/N=C(/Cc1occc(=O)c1O)C(=O)Nc1ccccc1C
inactive: SNB-78 > 100 µM | DMS-114 > 100 µM | KM-20L2 > 100 µM | M19-MEL > 100 µM

CC1CN1c1c(C(=O)/C=C/c2ccc(Cl)cc2)c(-c2ccccc2)nn(C)c1=O (configuration not stated)
inactive: SNB-78 2.21 µM | HOP-18 3.92 µM | DMS-114 3.65 µM | DLD-1 1.71 µM | XF498 2.99 µM | DMS-273 2.62 µM | KM-20L2 3.26 µM | M19-MEL 3.14 µM

CCOC(=O)C1(Cc2ccc3ccccc3c2)CCCCCN1 (configuration not stated)
inactive: SNB-78 64.3 µM | HOP-18 25.5 µM | DMS-114 26.5 µM | DLD-1 25.9 µM | XF498 16.2 µM | DMS-273 18.9 µM | KM-20L2 22.5 µM | M19-MEL 31.1 µM

Cc1nc2c(nc1C)C(=O)C1=C(C2=O)C2C=CC1CC2
inactive: SNB-78 3.21 µM | HOP-18 16.4 µM | DMS-114 1.75 µM | DLD-1 7.53 µM | XF498 5.65 µM | DMS-273 14.6 µM | RXF 631 6.15 µM | KM-20L2 23.3 µM | M19-MEL 1.75 µM

c1ccc([P+](c2ccccc2)(c2ccccc2)C2Sc3ccccc3S2)cc1
inactive: SNB-78 18.7 µM | DMS-114 12.7 µM | DLD-1 12.4 µM | XF498 17.3 µM | DMS-273 18.1 µM | RXF 631 16 µM | KM-20L2 23.4 µM | M19-MEL 15.1 µM

N#C/C(=C\c1ccc(O)cc1)C(N)=O
inactive: SNB-78 > 100 µM | DMS-114 > 100 µM | DLD-1 > 100 µM | XF498 > 100 µM and > 88.5 µM | DMS-273 > 100 µM | RXF 631 > 100 µM | KM-20L2 > 100 µM | M19-MEL > 100 µM

O=[N+]([O-])c1ccccc1S(=O)(=O)c1ccccc1[N+](=O)[O-]
inactive: SNB-78 16.4 µM | HOP-18 > 83.2 µM | DMS-114 > 90.2 µM | DLD-1 > 100 µM | XF498 30.7 µM | DMS-273 > 100 µM | KM-20L2 > 100 µM | M19-MEL > 100 µM

CN=[S+]([O-])(c1ccccc1)c1ccccc1
inactive: SNB-78 > 100 µM | HOP-18 > 100 µM | DMS-114 > 100 µM | DLD-1 > 100 µM | XF498 > 100 µM | DMS-273 > 100 µM | KM-20L2 > 100 µM | M19-MEL > 100 µM

CC1=C(C)C(=O)c2c(cc3ccccn23)C1=O
inactive: SNB-78 23.1 µM | HOP-18 33.9 µM | DMS-114 12.9 µM | DLD-1 > 10 µM | DMS-273 16.6 µM | RXF 631 3.12 µM | M19-MEL 1.87 µM

O=C(COc1ccccc1Cl)N1N=C(c2ccccc2)CC1(O)c1ccccc1 (configuration not stated)
inactive: SNB-78 20.4 µM | DLD-1 18.5 µM | XF498 17.6 µM | DMS-273 16.7 µM | KM-20L2 16.1 µM | M19-MEL 19 µM

Oc1cc(O)c2c(-c3c(O)c(-c4ccc(O)c(O)c4)[o+]c4cc(O)cc(O)c34)c(O)c(-c3ccc(O)c(O)c3)[o+]c2c1
inactive: SNB-78 51.5 µM | HOP-18 8 µM | DMS-114 32.7 µM | DLD-1 87.7 µM | XF498 33.7 µM | DMS-273 39.6 µM | RXF 631 30.9 µM | KM-20L2 46 µM | M19-MEL 45.3 µM
